No end group written: not given here.
Legend:
GL261 tumors [1] = test: TUNEL stain of intracranial GL261 glioblastoma tumors; type: in vivo, C57BL/6 mice
Protocol: The response of cancer cells within the intracranial glioblastoma tumor model, GL261, was also tested in mice. GL261 tumors were implanted into the brains of C57BL/6 mice. After tumor formation (seven days later), mice were treated with GLEEVEC®, 4 Gy or both GLEEVEC® and 4 Gy. Tumors were sectioned and assayed with TUNEL stain to identify apoptotic nuclei. […] The pharmacodynamic response (such as apoptosis) in tumors treated with GLEEVEC® correlated with tumor growth delay.

[2] = test system: tumor vascular endothelium; conditions: Geng et al., 2001; Lu et al., 2004; cited from earlier work
[3] = biological target: T1, GP-IIb/IIIa receptors on activated platelets (Homo sapiens, UniProt P05106+P08514); test: Clinical gamma camera/SPECT imaging of 99mTc-labeled bibapcitide in irradiated tumors; type: in vivo, patients
T1 construct: from tissue
T1 sequence (P08514 32-887 limits assumed): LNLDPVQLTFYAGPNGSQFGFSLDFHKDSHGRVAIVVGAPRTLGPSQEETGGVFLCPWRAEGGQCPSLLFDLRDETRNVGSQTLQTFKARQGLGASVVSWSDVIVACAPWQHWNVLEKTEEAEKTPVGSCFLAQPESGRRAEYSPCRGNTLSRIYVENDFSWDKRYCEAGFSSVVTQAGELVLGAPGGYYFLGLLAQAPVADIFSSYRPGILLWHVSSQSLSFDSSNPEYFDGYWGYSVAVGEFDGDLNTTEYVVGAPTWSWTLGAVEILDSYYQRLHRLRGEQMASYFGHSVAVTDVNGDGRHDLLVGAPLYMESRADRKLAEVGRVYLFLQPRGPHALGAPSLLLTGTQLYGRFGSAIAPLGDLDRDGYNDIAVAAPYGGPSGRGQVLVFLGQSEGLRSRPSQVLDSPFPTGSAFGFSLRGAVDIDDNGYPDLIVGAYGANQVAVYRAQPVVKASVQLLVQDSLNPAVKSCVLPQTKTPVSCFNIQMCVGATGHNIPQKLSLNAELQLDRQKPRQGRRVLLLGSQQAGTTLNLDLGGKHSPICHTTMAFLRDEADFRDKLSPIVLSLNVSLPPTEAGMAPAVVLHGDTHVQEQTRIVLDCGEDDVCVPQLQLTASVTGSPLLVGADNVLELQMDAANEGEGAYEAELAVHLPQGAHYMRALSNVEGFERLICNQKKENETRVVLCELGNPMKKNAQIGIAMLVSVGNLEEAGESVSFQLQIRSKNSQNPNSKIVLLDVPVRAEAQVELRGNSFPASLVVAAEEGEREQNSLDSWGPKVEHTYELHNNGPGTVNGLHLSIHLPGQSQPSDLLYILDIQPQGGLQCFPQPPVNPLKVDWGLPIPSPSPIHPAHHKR
T1 sequence (P08514 891-1039 partner limits assumed): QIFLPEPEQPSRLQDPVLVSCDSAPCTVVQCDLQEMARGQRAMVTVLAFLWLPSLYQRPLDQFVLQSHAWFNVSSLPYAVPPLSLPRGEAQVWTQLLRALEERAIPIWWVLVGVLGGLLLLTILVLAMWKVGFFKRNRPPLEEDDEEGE
T1 sequence (P05106 27-788): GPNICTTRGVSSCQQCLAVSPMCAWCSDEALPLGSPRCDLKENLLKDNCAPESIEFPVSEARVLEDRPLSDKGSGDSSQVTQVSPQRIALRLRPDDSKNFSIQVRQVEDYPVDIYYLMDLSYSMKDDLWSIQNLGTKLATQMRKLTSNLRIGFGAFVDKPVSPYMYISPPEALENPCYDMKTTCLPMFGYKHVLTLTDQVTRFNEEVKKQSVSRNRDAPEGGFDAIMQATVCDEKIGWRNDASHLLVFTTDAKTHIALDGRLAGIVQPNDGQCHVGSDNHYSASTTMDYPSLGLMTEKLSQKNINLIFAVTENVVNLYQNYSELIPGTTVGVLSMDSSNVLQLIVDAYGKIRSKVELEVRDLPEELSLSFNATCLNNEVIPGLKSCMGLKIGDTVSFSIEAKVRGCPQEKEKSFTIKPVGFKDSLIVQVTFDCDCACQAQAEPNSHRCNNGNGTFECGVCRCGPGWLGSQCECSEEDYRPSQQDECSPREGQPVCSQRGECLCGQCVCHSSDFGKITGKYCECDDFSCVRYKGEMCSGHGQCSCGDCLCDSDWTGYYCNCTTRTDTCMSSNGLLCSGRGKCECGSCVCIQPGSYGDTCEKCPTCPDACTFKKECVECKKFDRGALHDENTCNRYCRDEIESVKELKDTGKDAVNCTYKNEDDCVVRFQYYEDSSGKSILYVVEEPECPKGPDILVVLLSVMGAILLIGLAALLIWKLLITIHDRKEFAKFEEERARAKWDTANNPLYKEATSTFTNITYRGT
Protocol: Ligand Preparation and Administration. Bibapcitide (ACUTECT™, available from Diatide, Inc. of Londonderry, N.H., United States of America) is a synthetic peptide that binds to GP-IIb/IIIa receptors on activated platelets (Hawiger et al., 1989; Hawiger & Timmons, 1992). Bibapcitide was labeled with ^99mTc in accordance with a protocol provided by Diatide Inc.
Reconstituted ^99mTc-labeled bibapcitide was administered to patients at a dose of 100 μg of bibapcitide radiolabeled with 10 mCi of ^99mTc. […] Patients underwent gamma camera imaging prior to irradiation and 24 hours following irradiation.
Following planar image acquisition, those patients showing uptake in irradiated tumors underwent tomographic imaging using SPECT and repeat imaging at 24 hours. Patients showing no uptake on planer images during this 24-hour time frame had no further imaging.
Patients were treated with X-irradiation ranging from 4 to 18 MV photon using external beam linear accelerator at Vanderbilt University. Appropriate blocks, wedges, and bolus to deliver adequate dose to the planned target volume was utilized. The site of irradiation, treatment intent, and normal tissue considerations determined the radiation dosage and volume. When stereotactic radiosurgery was used, the dose was prescribed to the tumor periphery.
Image Analysis. Image acquisition consisted of both planar and single photon emission computed tomography (SPECT) studies. Planar studies were performed on a dual-head gamma camera (Millennium VG-Variable Geometry model available from General Electric Medical Systems of Milwaukee, Wis., United States of America) equipped with low energy high-resolution (LEUR) collimators. This type of collimator represents a compromise between sensitivity (photon counting efficiency) and image resolution. Planar nuclear medicine images were acquired with a 256×256 acquisition matrix (pixel size approximately 0.178 cm/pixel) for 10 minutes. In order to maximize collimator-gamma camera system sensitivity the source-to-detector surface distance was minimized to the extent that patient geometry allows. The spatial distribution of […] within the planar image was measured using region-of-interest (ROI) analysis. Two different size ROIs (5×5 pixel, and 15×15 pixel) was used in both the tumor and surrounding organs and tissues in the patient. The rationale for using ROIs with different dimensions is to be able to quantify image counts while at the same time isolating any possible influence of ROI size on the results. Tumor-to-background ratios were computed as the ratio of average counts in the tumor region divided by average counts in surrounding organs and tissues, each corrected for background. Background counts was determined based on ROI analysis of a separate planar acquisition performed in the absence of a radioactive source.
Three-dimensional nuclear medicine SPECT examinations were performed using the same dual-head gamma camera system. Each SPECT study comprised a 360 scan acquired with a step-and-shoot approach utilizing the following acquisition parameters: three increments between views, a 256×256×64 acquisition matrix, LEUR collimation and 60 seconds per view. […] SPECT tumor-to-background ratios were computed using quantitative ROI techniques identical to the planar studies. […]

LLC and GL261 tumors = test: Conserved motifs within phage peptides recovered by in vivo panning from both tumor models; set-up: species or system mice; conditions: for Frequency of Recovery of conserved sequence: share of phage peptides recovered from irradiated tumors that contain the sequence
Protocol: (§1) For in vivo panning, tumors were irradiated with 3 Gy and approximately 10^10 phage (prepared as described in Example 1) were administered by tail vein injection into each of the tumor bearing mice at 4 hours following irradiation. Tumors were recovered at one hour following injection and amplified in BL21 bacteria. Amplified phage were pooled and re-administered to a tumor-bearing mouse following tumor irradiation. The phage pool was sequentially administered to a total of 6 animals. As a control, wild type phage lacking synthetic peptide inserts were identically administered to a second experimental group of animals.
(§2) Following six rounds of in vivo panning, fifty recombinant phage peptides that bound within irradiated tumors were randomly selected for further analysis. The nucleic acid sequence encoding recombinant phage was amplified by PCR using primers set forth as SEQ ID NOs: 20-21 (available from Novagen Brand, a unit of EMD Biosciences, Inc., Madison, Wis.). An individual phage suspension was used as template. Amplified peptides were sequenced using an ABI PRISM® 377 sequencer (Applied Biosystems of Foster City, Calif., United States of America).
The amino acid sequences of all phage that were recovered from both tumors were studied in order to identify homologous sequences (Table 2). The most commonly recovered phage peptide had amino acid sequence HVGGSSV (SEQ ID NO: 1), and the second most common sequence was […] (SEQ ID NO: 2). The probability of recovering these peptide sequences from both tumor subtypes is 625/10^14 for each of the peptide sequences. The peptide sequence GSSV (SEQ ID NO: 9) was present in 58% of the phage recovered from tumors. Homology between peptides recovered from LLC and GL261 included 100% homology in […] (SEQ ID NO: 2) and 70% homology in RGSGSRV (SEQ ID NO.: 12). Of interest is a 6 amino acid homology spanning over 8 amino acids that include amino acids SXRGXGS (SEQ ID NO: 13), which was recovered from 28% of all phage in 2 tumor models (p<0.0001). The probability of having six identical amino acids by chance is 6^−24.

[4] = test system: responding tumor blood vessels; test: Biotinylated peptide binding in tumor blood vessels, FITC-avidin fluorescent microscopy; type: in vivo, mice
Protocol: The amino acid sequence RGXGSXV (SEQ ID NO: 18) was found in 41% of phage recovered from treated LLC tumors. To determine the pattern of RGDGSSV (SEQ ID NO: 10) peptide binding within responding tumor blood vessels, biotinylated peptide was administered by tail vein injection. Tumors were implanted into both hind limbs of mice. The right tumor was irradiated according to Example 2, and the left served as an untreated internal negative control. Biotinylated peptide was administered by tail vein injection immediately prior to tumor irradiation.

LLC tumors = test: In vivo panning of T7 phage peptide library: phage recovered from irradiated LLC tumors; set-up: species or system mice
Protocol: (§3) GL261 murine glioma cells and Lewis lung carcinoma (LLC) cells were implanted into the hind limb of C57BL/6 mice (see Hallahan et al., 1995b; Hallahan et al., 1998; Hallahan & Virudachalam, 1999).
as §1
(§4) To determine the titer of phage binding in a tumor or in normal tissue, recovered phage were amplified in BL21 bacteria. Bacteria were plated and the number of plaques present was counted. To determine the total phage output per organ, the number of plaque forming units (PFU) on each plate was divided by the volume of phage plated and the weight of each organ. Normal variation was observed as a 2-fold difference in PFU. In the present Example, background binding within tumor blood vessels was approximately 10^4 phage. Phage that bound to the vasculature within irradiated tumors show enrichment in the tumor relative to other organs and enrichment in the irradiated tumor relative to the control phage without DNA insert.
as §2

[5] = test system: B16F0 melanoma, lung carcinoma and glioma tumor models; test: Binding of phage-encoded peptides in additional tumor models; type: in vivo; conditions: phage encoding the peptide
Source text: The binding properties of phage encoding HVGGSSV (SEQ ID NO: 1), […] (SEQ ID NO: 2), […] (SEQ ID NO: 3), and SVGSRV (SEQ ID NO: 4) were additionally characterized in a B16F0 melanoma model.

GL261 tumors [6] = test: In vivo panning of T7 phage peptide library: phage recovered from irradiated GL261 tumors; set-up: species or system mice; conditions: Experiment A, 3 Gy; for Phage Recovered from GL261 tumors: number of sequenced phage after six rounds; for Phage Recovered from GL261 tumors (Frequency): six rounds
Protocol: as §3, §1, §4, §2

[7] = Experiment B, number of sequenced phage
[8] = Experiment A, number of sequenced phage after six rounds, 3 Gy

Cc1ccc(NC(=O)c2ccc(CN3CCN(C)CC3)cc2)cc1Nc1nccc(-c2cccnc2)n1 [GLEEVEC®]
Glioma nuclei stained positive with TUNEL stain (GL261 tumors [1]; TKI alone): 5% | Apoptotic nuclei (TUNEL) (GL261 tumors [1]; TKI followed by irradiation (4 Gy)): 18%

Cc1cc(C)c(/C=C2\C(=O)Nc3ccccc32)[nH]1 [SU5416]
Apoptosis within tumor vascular endothelium [2]: induced apoptosis within tumor vascular endothelium

Cc1[nH]c(/C=C2\C(=O)Nc3ccccc32)c(C)c1CCC(=O)O [SU6668]
Apoptosis within tumor vascular endothelium [2]: induced apoptosis within tumor vascular endothelium

Bibapcitide [^99mTc-labeled bibapcitide]
Tumor binding ([3]; administered immediately prior to radiation, 10 Gy or more): 4 of 4 | Localization to tumor ([3]; administered within one hour following radiation): failed to show localization | Specificity of binding ([3]; clinical study, general finding): non-specific binding | Binding to responding tumors in dose de-escalation study ([3]; radiation dose reduced to 5 Gy): not sufficient | Binding in second neoplasms not treated with radiation ([3]; two patients, non-responding tumors): not observed

GSRV (conserved subsequence) [conserved motif within peptides identified by in vivo panning]
Frequency of Recovery of conserved sequence (LLC and GL261 tumors): 6%

GSSV (conserved subsequence) [conserved motif within peptides identified by in vivo panning]
Phage recovered from irradiated tumors (LLC and GL261 tumors; phage with peptide insert comprising the subsequence, no phage with wild type): 22-40 of 10^6 injected phage | Frequency of Recovery of conserved sequence (LLC and GL261 tumors): 58%

GSXV [conserved motif within peptides identified by in vivo panning]
Frequency of Recovery of conserved sequence (LLC and GL261 tumors): 80%

NSV (conserved sequence) [N-terminal NSV, conserved N-terminal motif, N encoded by the vector]
Frequency of Recovery of conserved sequence (LLC and GL261 tumors): 22%

NSXR [N-terminal NSXR, conserved N-terminal motif, N encoded by the vector]
Frequency of Recovery of conserved sequence (LLC and GL261 tumors): 39%

NXVG [N-terminal NXVG, conserved N-terminal motif, N encoded by the vector]
Frequency of Recovery of conserved sequence (LLC and GL261 tumors): 34%

RGDGSSV (also: biotin, site not given here) [tested as biotinylated peptide]
Frequency of Recovery of conserved sequence (LLC and GL261 tumors): 28% | Peptide binding in irradiated (responding) tumor ([4]; biotinylated peptide by tail vein immediately prior to irradiation, right tumor irradiated): accumulation throughout the lumen of responding tumors | Peptide binding in untreated control tumor ([4]; biotinylated peptide by tail vein, left tumor untreated internal control): near absence of binding

RGXGSXV [conserved motif in phage recovered from treated LLC tumors]
Frequency of sequence in phage recovered from treated LLC tumors (LLC tumors; treated LLC tumors): 41%

SGRKVGSGSSV (Peptide that binds to LLC and/or GL261 tumors) [peptide isolated by in vivo panning of a phage library]
Phage Recovered from LLC tumors (Frequency) (LLC tumors; Experiment B): (50%) | Phage Recovered from LLC tumors (LLC tumors; [7]): 7

SKEK (Peptide that binds to LLC and/or GL261 tumors) [peptide isolated by in vivo panning of a phage library]
Phage Recovered from LLC tumors (Frequency) (LLC tumors; Experiment B): (7%) | Phage Recovered from LLC tumors (LLC tumors; [7]): 1

SRKQGGTEV (Peptide that binds to LLC and/or GL261 tumors) [peptide isolated by in vivo panning of a phage library]
Phage Recovered from LLC tumors (Frequency) (LLC tumors; Experiment B): (7%) | Phage Recovered from LLC tumors (LLC tumors; [7]): 1

SVGSRV (Peptide that binds to LLC and/or GL261 tumors) [peptide isolated by in vivo panning of a phage library]
Tumor models within which the phage-encoded peptide bound [5]: bound within lung carcinoma and glioma | Phage Recovered from LLC tumors (LLC tumors; [8]): 1 | Phage Recovered from LLC tumors (Frequency) (LLC tumors; Experiment A, six rounds, 3 Gy): (4%) | Phage Recovered from GL261 tumors (GL261 tumors [6]): 3 | Phage Recovered from GL261 tumors (Frequency) (GL261 tumors [6]): (12%)

SVRGSGSGV (Peptide that binds to LLC and/or GL261 tumors) [peptide isolated by in vivo panning of a phage library]
Tumor models within which the phage-encoded peptide bound [5]: bound within glioma and melanoma | Phage Recovered from LLC tumors (LLC tumors; [8]): 7 | Phage Recovered from LLC tumors (Frequency) (LLC tumors; Experiment A, six rounds, 3 Gy): (28%) | Phage Recovered from GL261 tumors (GL261 tumors [6]): 0 | Phage Recovered from GL261 tumors (Frequency) (GL261 tumors [6]): (0%)

SVVRDGSEV (Peptide that binds to LLC and/or GL261 tumors) [peptide isolated by in vivo panning of a phage library]
Phage Recovered from LLC tumors (Frequency) (LLC tumors; Experiment B): (21%) | Phage Recovered from LLC tumors (LLC tumors; [7]): 3

SXRGXGS [conserved motif within peptides identified by in vivo panning]
Frequency of Recovery of conserved sequence (LLC and GL261 tumors): 28%

— patent publication US20100135905A1, “ASSESSMENT OF CANCER SUSCEPTIBILITY TO MOLECULAR TARGETED THERAPY BY USE OF RECOMBINANT PEPTIDES” (priority 2004, published 2010)
